These results are taken from publication PMC11422593, “Structural and biochemical analysis of highly similar HLA-B allotypes differentially associated with type 1 diabetes” (The Journal of Biological Chemistry, 2024).

Usually IC50 stands for the concentration needed to halve the response being measured.

Read-outs that look alike come from different tables or passages of the source. No end group written: not given here. Some results are limits rather than exact numbers.

In assay [1] the target is HLA-B∗38:01 (purified MHC molecules) (human). Put plainly: radioligand binding.
The target in assay [2] is HLA-B∗39:06 (purified MHC molecules) (human). Nature of the assay: radioligand binding.
The target of assay [3] is HLA-B∗39:01 (purified MHC molecules) (human). Nature of the assay: radioligand binding.
The target of assay [4] is T1, HLA-B∗39:06 (Homo sapiens, UniProt P01889, A182T/A93T/A95T/C349S/D138N/D201E/E176V/E187T/E204Q/K202T/L119W/Q94N/R155S/R180L/S121T/Y140F/Y91C). Nature of the assay: biochemical. It is filed as binding.
The target in a further assay is T2, HLA-B∗39:01 (Homo sapiens, UniProt P01889, A182T/A93T/A95T/C349S/D138N/D201E/E176V/E187T/E204Q/K202T/Q94N/R155S/R180L/S121R/Y140F/Y91C).
T2 construct: made in house
Nature of the assay: biochemical. It is filed as binding.

The target in assay [5] is T3, HLA-B∗38:01 (Homo sapiens, UniProt P01889, A182T/A93T/A95T/C349S/D138N/D201E/D98Y/E176V/E187T/E204Q/G107R/K202T/L105A/N104I/Q94N/R106L/R155S/R180L/S101N/S121R/Y140F/Y91C). On the set-up: made in house. The settings on record: read-out: IC50 of the probe peptide (HLA-B∗38:01 assay); cited from earlier work.
The target of assay [6] is T3, HLA-B∗38:01. Nature of the assay: biochemical.
For assay [7], the target named is T1, HLA-B∗39:06. The settings on record: cited from earlier work. As to the method:
We previously reported the sequences of peptides endogenously bound to and eluted from HLA-B∗39:06 molecules purified from the human lymphoblastoid cell line C1R/HLA-B∗39:06 ([26]). […] Our strategy was based on the prior seminal observations of Ploegh et al. ([27]) that the incubation of cells at 26 °C allows for empty class I MHC molecules to reach the cell surface, and that the MHC can be stabilized if a binding peptide is also included. […] Assays to quantitatively measure peptide binding to purified B∗39:06 and B∗39:01 molecules were based on the inhibition of binding of a high-affinity radiolabeled peptide and performed as described ([26]).

In assay [8] the target is HLA-B∗38:01 (purified MHC molecules) (human). Put plainly: radioligand binding; cell-free competitive assay as for B∗39:06, with purified HLA-B∗38:01 and radiolabelled … as the probe.

“… (human insulin, position 5, 9mer) (peptide)”: the IC50 worked out at 850 nM in assay [1], 677 nM in [2] and 14 nM in [3].
For `CC(C)C[C@H](NC(=O)[C@H](CS)NC(=O)[C@@H]1CCCN1C(=O)[C@H](CO)NC(=O)[C@H](CO)NC(=O)[C@H](Cc1c[nH]cn1)NC(=O)[C@@H](N)CC(N)=O)C(=O)N[C@@H](CCC(=O)O)C(=O)N[C@@H](CCC(N)=O)C(=O)N[C@@H](Cc1ccccc1)C(=O)O`, the figures for the IC50 against HLA-B∗39:06 [4] and on HLA-B∗39:01 were above 50000 nM and 25700 nM, respectively.
Consider YHIPGDTLF, for which the IC50 at HLA-B∗38:01 [5] was 1.4 nM.
With “YHFLQIPT (human G6Pase 2, position 307) (peptide)”, the IC50 was 9750 nM in assay [1], 151 nM in [2] and 660 nM in assay [3].
On to SASIPLTVVA, for which the figures for the half-maximal inhibitory concentration (IC50) against HLA-B∗39:06 [4], on HLA-B∗39:01 and against HLA-B∗38:01 [6] were 310 nM, 30900 nM and above 50000 nM, respectively.
For the molecule TNLFLFLFAV, the half-inhibitory concentration (IC50) against HLA-B∗39:06 [4] was determined as 354 nM; against HLA-B∗39:01 it was 3950 nM; against HLA-B∗38:01 [6], 6690 nM.
As for WMRLLPLLA, the IC50 against HLA-B∗39:06 [4] was 155 nM; on HLA-B∗39:01, 865 nM; against HLA-B∗38:01 [6] it was above 50000 nM.
As for “FRYQGHVGA [Homo sapiens proteasome subunit 127–135, reference compound]”, at HLA-B∗39:06 [7] (unlabeled version of the radiolabeled probe, read-out: IC50 of the probe peptide for B∗39:06), the IC50 was 24 nM.
Turning to “NRVMLPKA (NLRP2, position 320, 8mer) (peptide)”, the IC50 worked out at 41 nM in assay [2] and 85 nM in assay [3].
Take MRLLPLLAL [MRLLPLLAL]: the IC50 against HLA-B∗39:06 [4] was 677 nM; at HLA-B∗39:01 it was 14 nM; against HLA-B∗38:01 [6] it was 850 nM.
For the molecule DHAVVVGV, the “rank of binding to HLA-B∗39:06 among the candidate endogenous ligands” value at HLA-B∗39:06 [7] (cell-free competitive assay, purified HLA-B∗39:06 and high-affinity radiolabeled ligand, also data not shown) was “by far the weakest HLA-B∗39:06 binder among the candidates”.
On to “MRLLPLLA (human insulin, position 5, 8mer) (peptide)”, for which the IC50 in assay [1] worked out at 44500 nM; in assay [2] it was 41 nM; in assay [3] it was 62 nM.
Take NRVMLPKAA: the IC50 against HLA-B∗39:06 [4] is 14 nM; at HLA-B∗39:01, 35 nM; at HLA-B∗38:01 [6], above 50000 nM.
For the molecule NRVMLPKA, the IC50 on HLA-B∗39:06 [4] amounted to 41 nM; against HLA-B∗39:01, 85 nM.
On to FRLLCALTSL, for which the results for the IC50 against HLA-B∗39:06 [4], against HLA-B∗39:01 and against HLA-B∗38:01 [6] were 7.4 nM, 290 nM and 2760 nM, respectively.
For the molecule FLFLFAVG, the results for the IC50 against HLA-B∗39:06 [4], against HLA-B∗39:01 and against HLA-B∗38:01 [6] were 405 nM, 17900 nM and above 50000 nM, respectively.
For the molecule SHLVEALYL, the IC50 against HLA-B∗39:06 [4] was found to be 35600 nM; at HLA-B∗39:01, 5250 nM; at HLA-B∗38:01 [6], 10 nM.
For the molecule THFPHQVIL, the IC50 against HLA-B∗39:06 [4] stood at 2600 nM; against HLA-B∗39:01, 73 nM; on HLA-B∗38:01 [6], 142 nM.
On to … (DDX3X, position 2) (peptide), for which the IC50 came out at 321 nM in assay [1], 696 nM in assay [2] and 11 nM in assay [3].
YHFLQIPT: the IC50 amounted to 151 nM at HLA-B∗39:06 [4], 660 nM against HLA-B∗39:01 and 9750 nM against HLA-B∗38:01 [6].
As to MRLLPLLA, the results for the 50% inhibitory concentration (IC50) on HLA-B∗39:06 [4], on HLA-B∗39:01 and against HLA-B∗38:01 [6] were 41 nM, 62 nM and 44500 nM, respectively.
Turning to `CC(C)C[C@H](NC(=O)[C@H](C)NC(=O)[C@H](CC(N)=O)NC(=O)[C@H](CCC(=O)O)NC(=O)[C@@H](NC(=O)[C@H](C)NC(=O)[C@@H](NC(=O)[C@H](Cc1c[nH]cn1)NC(=O)[C@@H](N)CO)C(C)C)C(C)C)C(=O)O` [SHVAVENAL, reference compound], the IC50 against HLA-B∗39:06 [4] came out at 696 nM; at HLA-B∗39:01, 11 nM; on HLA-B∗38:01 [6], 321 nM.
Regarding “… (Variola virus RNA helicase 346–354) (peptide)”, the IC50 in assay [1] came out at 1.4 nM.
Turning to WMRLLPLLA [… (human insulin, position 4)], the IC50 in assay [8] was above 50000 nM; in [2] it was 155 nM; in assay [3] it was 865 nM.
Regarding NRVMLPKAA [… (NLRP2 320 to 328), free peptide], the results for the IC50 in assay [8], in [2] and in [3] were above 50000 nM, 14 nM and 35 nM, respectively.
The like results for FLFLFAVG [FLFLFAVG (human G6Pase 2, position 213)] were, in that order, above 50000 nM, 405 nM and 17900 nM.
As to SASIPLTVVA [… (human G6Pase 2, position 328)], the IC50 was above 50000 nM in assay [8], 310 nM in assay [2] and 30900 nM in assay [3].
Regarding FRYQGHVGA (not fully specified) [… (Homo sapiens proteasome subunit 127–135)], the IC50 in [2] is 24 nM.
